Measured values: patent publication US8598132B2, “Glycosylated indolocarbazoles, method for obtaining same and uses thereof” (Universidad de Oviedo, priority 2008, dated 2013)

What was measured:
RSK1 = target: T1, RSK1 (Homo sapiens, UniProt Q15418); experiment: LabChip (Caliper) kinase assay, RSK1; format: biochemical; conditions: read-out: remaining kinase activity (in %) / percentage of inhibition; for inhibition at 0.01 µM: compound at 10 nM; for inhibition at 0.1 µM: compound at 100 nM
T1 construct: purchased Carna Biosciences
Protocol: (§1) The analysis of kinase activity described here was performed using LabChip (Caliper Life Sciences), specifically the Caliper LC3000 and the EZ Reader II instruments.
(§2) The kinase assay used measures the conversion of a fluorescent peptide (substrate) to a phosphorylated product. The reaction mixture, in a microplate well, is introduced by a capillary in a chip where the non-phosphorylated substrate and the phosphorylated product are separated by […]. The intensity of the fluorescent signal over time is related to the reaction progress. The phosphorylated product migrates quicker than the non-phosphorylated substrate and the signals of the two forms of the peptide appear as differentiated peaks. The Caliper determines the peak height and calculates the ratio of product to the peak sum (P/(P+S)). This value is used to compare wells with compounds and wells with controls and thus determine the % of inhibition for the given product.
(§3) The followings kinases were used for the enzymatic inhibition studies, between brackets the value of the Michaelis-Menten constant, Km, of the ATP (Adenosine triphosphate) for each kinase, in μM: obtained from Carna Biosciences: MAPKAPK2 (4.6), AurA (3.6), AurB (5), PKCζ (3.8), RSK1 (23.3), PRAK (5), Erk1 (33.4), PKD2 (32.1), CK1d (16.3), CHK1 (33), ABL (61.7), FYN (36), LYNa (17), CHK2 (57.8), MET (79.5), LCK (28.5), SRC (38), GSK3β (7.3), Erk2 (62.1), PKACα (1.7), AKT2 (186.1), INSR (871.8), p38a (396.5), AKT1(48), MSK1 (21.2), PKCβ2 (84.8), ROCK2 (3.3), PIM2 (4.9), AMPK (38.6), KDR (164.8), IRAK4 (196.5), SGK1 (121.8), SYK (33.5); obtained from Invitrogen: CDK2 (57.6), BTK (123), HGK (80); obtained from Upstate: MST2 (36.6), PKGα (16), PAK2 (1.9), IGF1R (320), FGFR1 (171), MARK1 (33), CAMK2δ (22.4), c-TAK1 (66), DYRK1a (18.1), CaMK4 (3.9), FLT3 (350), c-Raf (6.2), P70S6K (95).
(§4) The compounds were dissolved in 100% DMSO and were diluted at 25 times the final concentration desired for the assay. In the case of the determination of Cl50, serial dilutions were made to reach eight concentrations and give rise to the inhibition curve. 1 μL of each concentration is transferred, in duplicate to a 384-well microplate. 12 μL of enzymatic buffer is added to each well containing purified kinase (several suppliers as indicated above), 100 mM HEPES, pH 7.5, 1 mM DTT (Calbiochem), 0.002% Brij-35 (Sigma) and also in presence of 10 mM MgCl2 as cofactor, except for INSR and IRAK4 wherein 10 mM MnCl2 is used instead of MgCl2. For the kinases CAMK26 and CAMK4, 1 mM CaCl2 and 6.7 μg/mL of calmodulin are also added. For KDR kinase, 0.05% of the CHAPSO detergent is added. For the c-Raf kinase, 10 mM MnCl2 is added. For PKCβ2 0.02 μg/mL of PS/PMA is added. For PKGα se 10 μM of cGMP (cyclic guanosine monophosphate) is added. The compound and the enzyme are left for 15 minutes preincubation and, then, the following are added to each well: 12 μL of peptide buffer/ATP containing 100 mM HEPES, pH 7.5, 1.5 μM peptide marker with fluorescein (specific for the corresponding kinase), ATP (at concentration KM), and 0.002% Brij-35 to start the reaction. Generally, the reactions are incubated for 1-1.5 h at ambient temperature to obtain an adequate conversion (15-40%) of the peptide to the phosphorylated product. The reactions were ended by the addition of 45 μL of buffer containing 0 mM EDTA. The microplates were read by the LabChip 3000 using a 12-channel LabChip. The P/(P+S) values were obtained as described above and the CI50 curves were generated using XIfit. […]

SGK1 = target: T2, SGK1 (Homo sapiens, UniProt O00141); experiment: LabChip (Caliper) kinase assay, SGK1; format: biochemical; conditions: read-out: remaining kinase activity (in %) / percentage of inhibition; for inhibition at 0.01 µM: compound at 10 nM; for inhibition at 0.1 µM: compound at 100 nM
T2 construct: purchased Carna Biosciences
T2 sequence (O00141 1-431): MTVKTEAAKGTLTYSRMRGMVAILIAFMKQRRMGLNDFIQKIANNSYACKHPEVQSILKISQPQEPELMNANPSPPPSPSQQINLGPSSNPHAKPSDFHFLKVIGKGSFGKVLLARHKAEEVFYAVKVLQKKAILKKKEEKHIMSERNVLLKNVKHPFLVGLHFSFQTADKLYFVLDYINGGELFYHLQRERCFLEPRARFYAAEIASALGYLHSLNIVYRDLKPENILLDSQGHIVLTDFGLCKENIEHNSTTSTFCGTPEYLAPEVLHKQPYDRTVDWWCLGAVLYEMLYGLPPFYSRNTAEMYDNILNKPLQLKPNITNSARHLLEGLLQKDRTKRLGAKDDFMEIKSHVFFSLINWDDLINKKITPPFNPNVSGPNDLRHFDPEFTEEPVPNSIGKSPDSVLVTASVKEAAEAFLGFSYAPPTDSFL
Protocol: as §1, §2, §3, §4

T1 sequence (Q15418 whole entry): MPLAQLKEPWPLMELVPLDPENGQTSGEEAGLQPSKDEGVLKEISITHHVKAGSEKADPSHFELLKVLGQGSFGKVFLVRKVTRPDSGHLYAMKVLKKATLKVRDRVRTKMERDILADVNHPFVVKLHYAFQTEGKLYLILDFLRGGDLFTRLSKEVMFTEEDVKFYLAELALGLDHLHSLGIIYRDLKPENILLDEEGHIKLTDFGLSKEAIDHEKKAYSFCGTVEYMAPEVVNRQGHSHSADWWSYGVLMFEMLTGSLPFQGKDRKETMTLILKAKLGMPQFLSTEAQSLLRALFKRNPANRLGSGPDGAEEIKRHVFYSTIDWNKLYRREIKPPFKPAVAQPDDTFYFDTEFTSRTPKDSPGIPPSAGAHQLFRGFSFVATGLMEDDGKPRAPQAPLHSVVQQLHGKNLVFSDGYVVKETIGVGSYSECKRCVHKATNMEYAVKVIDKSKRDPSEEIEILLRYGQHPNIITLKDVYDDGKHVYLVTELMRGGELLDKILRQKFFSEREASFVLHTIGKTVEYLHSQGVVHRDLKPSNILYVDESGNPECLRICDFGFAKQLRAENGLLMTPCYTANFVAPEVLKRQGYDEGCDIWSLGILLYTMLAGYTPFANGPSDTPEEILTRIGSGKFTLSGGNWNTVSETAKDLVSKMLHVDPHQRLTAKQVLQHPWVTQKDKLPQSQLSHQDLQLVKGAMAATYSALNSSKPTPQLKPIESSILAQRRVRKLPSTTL

Row | SMILES | inhibition at 0.01 µM (RSK1) [%] | inhibition at 0.1 µM (RSK1) [%] | inhibition at 0.01 µM (SGK1) [%] | inhibition at 0.1 µM (SGK1) [%]
1 | C[C@@H]1O[C@@H](n2c3ccccc3c3c4c(c5c6ccccc6[nH]c5c32)C(=O)NC4=O)[C@H](O)[C@H](O)[C@H]1O [formula (III), N^13-1′-β-L-rhamnosylarcyriaflavin] | 2 | 20 | 8 | 13
2 | C[C@@H]1O[C@@H](n2c3ccccc3c3c4c(c5c6ccccc6[nH]c5c32)C(=O)NC4=O)C[C@H](O)[C@H]1O [formula (IV), N^13-1′-β-L-olivosylarcyriaflavin] | 14 | 77 | 9 | 17
3 | C[C@@H]1O[C@@H](n2c3ccccc3c3c4c(c5c6ccccc6[nH]c5c32)C(=O)NC4=O)C[C@@H](O)[C@H]1O [formula (V), N^13-1′-β-L-digitoxosylarcyriaflavin] | 38 | 77 | 17 | 37
4 | C[C@H]1O[C@@H](n2c3ccccc3c3c4c(c5c6ccccc6[nH]c5c32)C(=O)NC4=O)C[C@@H](O)[C@@H]1O [formula (VI), N^13-1′-β-D-olivosylarcyriaflavin] | 31 | 74 | 12 | 27
5 | C[C@@H]1O[C@@H](n2c3ccccc3c3c4c(c5c6ccccc6[nH]c5c32)CNC4=O)[C@H](O)[C@H](O)[C@H]1O [formula (XII), N^13-1′-β-L-rhamnosyl-k252c] | -4 | 7 | 7 | 6
6 | C[C@@H]1O[C@@H](n2c3ccccc3c3c4c(c5c6ccccc6[nH]c5c32)CNC4=O)C[C@H](O)[C@H]1O [formula (XIII), N^13-1′-β-L-olivosyl-k252c] | 7 | 56 | 8 | 15
7 | C[C@@H]1O[C@@H](n2c3ccccc3c3c4c(c5c6ccccc6[nH]c5c32)CNC4=O)C[C@@H](O)[C@H]1O [formula (XIV), N^13-1′-β-L-digitoxosyl-k252c] | -1 | 22 | 6 | 14
8 | C[C@H]1O[C@@H](n2c3ccccc3c3c4c(c5c6ccccc6[nH]c5c32)CNC4=O)C[C@@H](O)[C@@H]1O [formula (XV), N^13-1′-β-D-olivosyl-k252c] | -1 | 31 | 9 | 12
